One molecule from patent US5580854A, “Substrate-related peptidyl-aldehyde inhibitors of the proteolytic activity of the multicatalytic proteinase complex” (Mount Sinai School of Medicine of The City University of …, priority 1994, dated 1996) can be followed below.

Common to all, as to type: biochemical, bovine
Assay [1] concerns the target T1, SNAAP component of the multicatalytic proteinase complex (MPC) (Bos taurus, UniProt Q2TBP0+Q32KL2+Q3MHN0).
T1 construct: The MPC was isolated from frozen bovine pituitaries; tissue PelFreeze, Inc. (Rogers, Ark.) (supplier of the tissue; the enzyme was purified in house); host or cells: bovine pituitaries
The assay can be described thus: Activity of the SNAAP component of the MPC, coupled two step reaction with aminopeptidase N; Ki by Dixon plots. The note with it: substrate Cbz-Gly-Pro-Ala-Gly-Gly-pAB (1 to 4 mill); mean of 3 to 6 experiments ± SEM. An excerpt:
(§1) The MPC was isolated from frozen bovine pituitaries, obtained from PelFreeze, Inc. (Rogers, Ark.) essentially as described in Orlowski & Michaud, Biochemistry 28:9270-9277 (1989), incorporated herein by reference.
(§2) Cbz-Gly-Pro-Ala-Leu-Gly-pAB and Cbz-Gly-Pro-Ala-Gly-Gly-pAB, where pAB is p-aminobenzoate, were used as convenient substrates for the determination of the activity of the BrAAP and SNAAP components respectively. The BrAAP component cleaves exclusively the Leu-Gly bond in Cbz-Gly-Pro-Ala-Leu-Gly-pAB, whereas the SNAAP component cleaves the Gly-Gly bond in Cbz-Gly-Pro-Ala-Gly-Gly-pAB.
(§3) A coupled two step reaction in the presence of excess aminopeptidase N (AN) was used for the determination of the BrAAP and SNAAP activities as described previously (Orlowski et al., Biochemistry 32:1563-1572 (1993)). Aminopeptidase N was purified from hog kidneys as described by Pfleiderer, Meth. Enzymol. 19:514-521 (1970) and freed from the contaminating metalloendopeptidase (EC 3.4.24.11) as previously described (Almenoff & Orlowski, Biochemistry 22:590-599 (1983)).
(§4) Inhibition constant (K1) values for the inhibitors of the present invention towards the various proteolytic activities of the MPC were determined by the method of Dixon, Biochem. J. 55:170-171 (1953). Plots of 1/v vs [I] were made at three (3) different synthetic substrate concentrations and six (6) different inhibitor concentrations [I]. Linear regression analysis gave generally correlation coefficients better than 0.99.
(§5) Inhibition was tested with and without preincubation of the MPC with the inhibitors of the invention. No increase in inhibition was observed after preincubation of the enzyme with the inhibitor for up to 30 min, indicating absence of slow binding phenomena and a rapid equilibration between enzyme and inhibitor.
(§6) Table II provides a summary of the Ki measurements for the various peptidyl aldehydes of the invention synthesized in accordance with Examples 2 and 3.

Assay [2] deals with T2, multicatalytic proteinase complex (MPC) (Bos taurus, UniProt Q2TBP0+Q32KL2+Q3MHN0).
T2 construct: The MPC was isolated from frozen bovine pituitaries; tissue PelFreeze, Inc. (Rogers, Ark.) (supplier of the tissue; the enzyme was purified in house); host or cells: bovine pituitaries
Briefly: β-casein degradation by the MPC, HPLC. To be noted: 50 μM inhibitor, MPC 5.0 μg. As for the experimental part:
as §1
In vitro protein degrading activity of the MPC, and the effects of the various inhibitors of the present invention on such activity, was determined using β-casein and histone H3 as proteolytic substrates. For determining protein degrading activity in the presence and absence of inhibitors, incubation mixtures contained Tris-HCl buffer (0.05M, pH 8.0), β-casein or histone H3, 20 mM Mg^2+ where indicated, and inhibitor dissolved in dimethylsulfoxide, where indicated. In control samples, the inhibitor was replaced by an equal volume of dimethylsulfoxide alone.
In order to measure proteolysis by the MPC, and its inhibition by the inhibitors of the invention, aliquots of the reaction mixtures were removed after various incubation times and subjected to HPLC on a Deltapak column (C4; 5 μm; 300 A; 3.9×150 mm Waters). Elution of histone H3 was carried out with a linear gradient over 30 min. established between 30 and 50% acetonitrile (v/v) in water containing 0.1% trifluoroacetic acid (v/v) at a flow rate of 1 ml/min. Elution of β-casein was carried with a linear gradient established between 10 and 45% acetonitrile (v/v) in water containing 0.1% trifluoroacetic acid (v/v). The rate of protein degradation was determined by measuring the decrease of the peak height of the protein compared with controls in which the enzyme was omitted. Alternatively degradation of the proteins was determined by integrating the area under the peak of the protein at time zero and determining the decrease of the area after incubation with the enzyme.
FIG. 1 depicts the inhibition of β-casein degradation by Cbz-Gly-Pro-Ala-Leu-CHO. HPLC analyses were carried out on samples that had been incubated in the absence and presence of the inhibitor. Incubation mixtures contained β-casein (200 μg), 20 mM Mg^2+, MPC (30 μg) and various concentrations of, inhibitor, if used, in 2 μl of Me2 SO. […]

Assay [3] deals with T3, BrAAP component of the multicatalytic proteinase complex (MPC) (Bos taurus, UniProt Q2TBP0+Q32KL2+Q3MHN0).
T3 construct: The MPC was isolated from frozen bovine pituitaries; tissue PelFreeze, Inc. (Rogers, Ark.) (supplier of the tissue; the enzyme was purified in house); host or cells: bovine pituitaries
Briefly: Activity of the BrAAP component of the MPC, coupled two step reaction with aminopeptidase N; Ki by Dixon plots.
Excerpt: as §1, §2, §3, §4, §5, §6

For assay [4], the target named is T4, ChT-L component of the multicatalytic proteinase complex (MPC) (Bos taurus, UniProt Q32KL2).
T4 construct: The MPC was isolated from frozen bovine pituitaries; tissue PelFreeze, Inc. (Rogers, Ark.) (supplier of the tissue; the enzyme was purified in house); host or cells: bovine pituitaries
The assay can be described thus: ChT-L activity of the MPC with Cbz-Gly-Gly-Leu-pNA; Ki by Dixon plots.
Excerpt: as §1
The substrates Cbz-Gly-Gly-Leu-pNA, Cbz-D-Ala-Leu-Arg-2NA and Cbz-Leu-Leu-Glu-2NA were used to determine the activities of the ChT-L, T-L and PGPH components of the MPC, respectively, as previously described by Wilk and Orlowski, J. Neurochem. 35:1172-1182 (1980) and J. Neurochem 40:842-849 (1983), where pNA is p-nitroaniline and 2NA is 2-naphthylamide.The rate of release of the chromogenic group (aromatic amine) was measured after diazotization (Goldbarg & Rutenburg, Cancer 11:283-291 (1958) Bratton & Marshall, J. Biol. Chem. 128:537-550 (1939)).
Reaction mixtures contained 0.4 to 0.8 mM substrate, Tris-HCl buffer (0.05M; pH 8.0) and enzyme (1 to 3 μg) in a final volume of 0.25 ml. Incubations were at 37° C. The reactions were stopped by addition of an equal volume of 10% trichloroacetic acid and diazotization was then carried out.
as §4, §5, §6

Where two headings read alike, the source gives them in different places. Peptide text beside a SMILES is read from it. * marks the point of attachment. Cbz = O=C(OCc1ccccc1)*

Regarding `CC(C)C[C@@H](C=O)NC(=O)[C@H](Cc1ccccc1)NC(=O)[C@@H]1CCCN1C(=O)CNC(=O)OCc1ccccc1` [Cbz-Gly-Pro-Phe-Leu-CHO] (Cbz-GPFL-aldehyde), the Ki was 2.3 ± 0.24 µM in assay [1]; 1.67 µM in assay [3] (MPC exposed to DCI (10 μM), average of three determinations, read-out: Ki, BrAAP activity of the DCI-treated enzyme); 1.5 ± 0.17 µM in assay [3] (substrate Cbz-Gly-Pro-Ala-Leu-Gly-pAB (1 to 4 mill), mean of 3 to 6 experiments ± SEM, read-out: Ki, BRAAP component); 40.5 ± 8.8 µM in assay [4] (substrate Cbz-Gly-Gly-Leu-pNA (0.1 to 0.4 MM), mean of 3 to 6 experiments ± SEM). Further, the inhibition at 50 µM in assay [2] (β-casein 160 μg/ml, no Mg2+) came to 94%; in assay [2] (β-casein 1000 μg/ml, 20 mM Mg2+) it was 89%. Besides, the “Ki for ChT-L activity, times higher than that for the other three activities” value in assay [4] (ChT-L vs BrAAP, SNAAP, PGPH) was roughly 20 times.
